Experimental data from PMC8215677 (Frontiers in Pharmacology, 2021).
Where a name gives a salt, the structure may show the parent alone. Read-outs that look alike come from different tables or passages of the source. Marks after values point to notes of the source that are not given here.

What was measured:
[1] = test system: intestinal paracellular tight junctions (mouse gut sac); test: Transportation of FD4 across mouse gut sacs (tight junction integrity); type: in vitro ADME
Experimental: Fluorescein isothiocyanate-labeled dextran (FD4) with a molecular weight of 4,400 g/moL, is usually used to test the integrity of intestinal paracellular tight junctions ([Ma et al., 2012]). The influence of various NADES dilutions (1, 3, and 10%) on the in vitro transportation of FD4 (3 mg/ml) across the mouse gut sac was determined. The concentrations of FD4 were determined using a fluorescence microplate reader (BioTek Instruments, Winooski, VT, United States), with excitation and emission at 485 and 528 nm, respectively, ([Ma et al., 2012]). In addition, the effects of NADES dilutions pretreatment on the transportation of FD4 across the mouse gut sacs were also determined. Several mice were orally administered with 10% NADES aqueous solution. The intestines were collected after 4 h, completely washed with blank Krebs-Ringer buffer, and subsequently used for the transportation study.

mouse gut sacs = test: Transportation of BBR in mouse gut sacs; type: in vitro ADME; settings: BBR 200 μg/ml
Experimental: After incubation, aliquots of buffer (100 μL) were, respectively, taken from the serosal side or mucosal side every 15–60 min and replaced with an equal volume of blank Krebs-Ringer buffer. The LC-MS system (Quantification of several Coptidis Rhizomaalkaloids) was used for the quantitative analysis of BBR.

MDCK-MDR1 cells = test: Cytotoxicity in MDCK-MDR1 cells (CCK-8); settings: 4 and 24 h; for Cytotoxicity: p > 0.05
Experimental: The cells were seeded into 96 well plate at the density of 3 × 10^4 cells per well. After 24 h incubation in the incubator, the culture medium was carefully sucked out, and then 200 μL DMEM medium containing 0.1, 0.3, 1 or 3% NADES was added. The control well was added with the same volume of DMEM medium. After incubation for 4 h or 24 h, 10% CCK-8 solution was added. After incubation for another 2 h, the absorbance at 450 nm was measured by using a microplate reader. The cytotoxicity of the NADES dilutions was evaluated by comparing the absorbance of the treatment groups to that of the control group.
The above method was also used to evaluate the cytotoxicity of different concentrations of malic acid, i.e., 4.90, 1.47 or 0.49 mg/ml, which were, respectively, equal to the concentrations of malic acid in the 1, 0.3 or 0.1% dilutions of the NADES.

ICR mice = test: Acute toxicity in mice; type: in vivo; settings: malic acid 9,800, 2,940 or 980 mg/kg oral
Experimental: Sixty ICR mice were randomly divided into three groups according to gender and body weight, with 20 mice in each group. After fasting for 12 h, the mice were orally administered with 0.2 ml/10 g body weight the NADES (the four-component NADES prepared with 350 μL water, the same below) or its 30 and 10% water dilutions, respectively. The symptoms of the mice were then observed, and the death time and the number of dead mice within 3 days were recorded.
The above method was also used to evaluate the acute toxicity of malic acid at different dosages, i.e., 9,800, 2,940, or 980 mg/kg, which were, respectively, equal to the dosages of malic acid in the NADES and its 30%, and10% water dilutions.

[2] = Solubility of berberine hydrochloride in the NADES, its water dilutions and malic acid solutions; type: physicochemical
Experimental: BBR was dissolved in pure water as a control. The solutions were ultrasonically treated for 1 h, and after full vortexing, the solutions were placed at room temperature for 1 h. Next, the solutions were centrifuged at 20,000 g for 10 min at 20°C. The obtained supernatant was filtered through a 0.22 μm membrane. The filtered solution was diluted with a certain volume of methanol, followed by injection into the LC-MS system for the quantitative analysis of BBR (Quantification of several Coptidis Rhizomaalkaloids).
The concentrations of the primary metabolites were equal to their concentrations in the NADES, i.e., 490.5 mg/ml, 280.6 mg/ml, 517.7 mg/ml, and 19.0 mg/ml, respectively.

[3] = Pharmacokinetics of oral BBR in mice (portal vein and liver); type: in vivo, mice; settings: for AUC0-∞ / AUC0–12 h / Cmax / MRT / Tmax / half-life / AUC(0-inf) / AUC(0-t): mice; for AUC(0-t): read-out: AUC0–12 h
Experimental: The dosages of malic acid were, respectively, equal to the dosages of malic acid in the 1 and 10% water dilutions of the NADES. […] Six mice in each group were anesthetized using diethyl ether at 0.25, 0.5, 1, 2, 3, 4, 6, 8, or 12 h after administration. Blood samples were then collected from the portal vein into heparin-containing tubes. The plasma samples were obtained by centrifugation of the blood samples at 1,000 g for 10 min at 4°C. The livers of the mice were collected and homogenized in 10 × volume of water. At the end of the experiment, the mice were euthanized by cervical dislocation.
A non-compartmental analysis using WinNonlin® software (Pharsight, CA, United States) was performed to obtain the pharmacokinetic parameters of berberine in mice. It should be noted that the pharmacokinetic parameters were calculated based on the average drug concentration at each time point because the mice were not continuously sampled.

[4] = Transportation of BBR across MDCK-MDR1 cell monolayer; type: in vitro ADME, canine; settings: dog, MDCK-MDR1
Experimental: (§1) MDCK-MDR1 cells were seeded on a Merck Transwell polycarbonate membrane (NJ, United States) at a density of 2 × 10^5 cells/mL. The cells were cultured until the tight junctions were formed (transepithelial electrical resistance value >500 Ω cm2). Before the experiment, the media on both sides of the chamber were replaced with a warmed HBSS solution. The cells were then incubated for 20 min at 37°C.
(§2) The unit of P app is cm/sec.

MDCK-MDR1 cell monolayer = test: as above; type: in vitro ADME, canine; settings: for P app (AP-BL) / P app (BL-AP) / ERs (efflux rate): BBR 10 μg/ml
Experimental: as §1, §2

[5] = ref Liu et al., cited from earlier work
[6] = livers, oral BBR 200 mg/kg dissolved in water (Control)
[7] = livers, oral BBR 200 mg/kg in 1% NADES dilution
[8] = livers, oral BBR 200 mg/kg in 10% NADES dilution
[9] = livers, oral BBR 200 mg/kg in malic acid solution 98 mg/kg
[10] = livers, oral BBR 200 mg/kg in malic acid solution 980 mg/kg
[11] = mouse, liver, po, 200 mg/kg, livers, oral BBR 200 mg/kg dissolved in water (Control)
[12] = mouse, liver, po, 200 mg/kg, livers, oral BBR 200 mg/kg in 1% NADES dilution
[13] = mouse, liver, po, 200 mg/kg, livers, oral BBR 200 mg/kg in 10% NADES dilution
[14] = mouse, liver, po, 200 mg/kg, livers, oral BBR 200 mg/kg in malic acid solution 98 mg/kg
[15] = mouse, liver, po, 200 mg/kg, livers, oral BBR 200 mg/kg in malic acid solution 980 mg/kg
[16] = mouse, portal vein plasma, po, 200 mg/kg, portal vein, oral BBR 200 mg/kg dissolved in water (Control)
[17] = mouse, portal vein plasma, po, 200 mg/kg, portal vein, oral BBR 200 mg/kg in 1% NADES dilution
[18] = mouse, portal vein plasma, po, 200 mg/kg, portal vein, oral BBR 200 mg/kg in 10% NADES dilution
[19] = mouse, portal vein plasma, po, 200 mg/kg, portal vein, oral BBR 200 mg/kg in malic acid solution 98 mg/kg
[20] = mouse, portal vein plasma, po, 200 mg/kg, portal vein, oral BBR 200 mg/kg in malic acid solution 980 mg/kg

## O=C(O)CC(O)C(=O)O (centres unmarked) [malic acid]
[1]; malic acid 4.9, 14.7, 49.0 mg/ml present, concentration dependent, p < 0.01
  Effect on absorption of FD4 across mouse gut sacs: increased the absorption
[1]; malic acid pretreatment for 4 h
  Reversibility of the effect on FD4 absorption: reversible
Mouse gut sacs; malic acid 14.7 mg/ml or more
  Effect on efflux of BBR in gut sacs: promoted the efflux
Mouse gut sacs; malic acid 4.9–49.0 mg/ml, concentration-dependent
  Effect on absorption of BBR in gut sacs: promoted the absorption
MDCK-MDR1 cells; 0.49 mg/ml malic acid
  Cytotoxicity: no significant cytotoxicity
MDCK-MDR1 cells; 1.47 mg/ml malic acid
  Cytotoxicity: no significant cytotoxicity
MDCK-MDR1 cells; 4.9 mg/ml malic acid, p < 0.01
  Cell viability: completely lost
ICR mice
  Acute toxicity: significant acute toxicity

## COc1ccc2cc3[n+](cc2c1OC)CCc1cc2c(cc1-3)OCO2 [BBR, Berberine hydrochloride]
[2]; NADES (undiluted), in the NADES (100%), room temperature (20°C)
  solubility: ≥ 20 mg/mL
[2]; as the pH of the malic acid solution was increased by addition of NaOH, p < 0.01
  Solubility of berberine hydrochloride: increased
[2]; in 10% water dilution of NADES, p < 0.01
  Solubility of BBR compared with water: higher
[2]; in 30% water dilution of NADES, p < 0.01
  Solubility of BBR compared with water: higher
[3]; [6]
  AUC0-∞: 68.4 μg·h/g liver
  AUC0–12 h: 66.3 μg·h/g liver
  Cmax: 16.7 μg/g liver
[3]; [7]
  AUC0-∞: 80.9 μg·h/g liver
  AUC0–12 h: 74.5 μg·h/g liver
  Cmax: 29.3 μg/g liver
[3]; [8]
  AUC0-∞: 112.5 μg·h/g liver
  AUC0–12 h: 109.4 μg·h/g liver
  Cmax: 34.8 μg/g liver
[3]; [9]
  AUC0-∞: 73.8 μg·h/g liver
  AUC0–12 h: 72.3 μg·h/g liver
  Cmax: 38.0 μg/g liver
[3]; [10]
  AUC0-∞: 88.3 μg·h/g liver
  AUC0–12 h: 85.9 μg·h/g liver
  Cmax: 30.0 μg/g liver
[3]; mouse, in vivo, po
  Toxic reaction after oral administration: no toxic reaction
[3]; [11]
  MRT: 3.7 h
  Tmax: 2 h
  half-life: 2.2 h
[3]; [12]
  MRT: 3.2 h
  Tmax: 2 h
[3]; [13]
  MRT: 3 h
  Tmax: 1 h
  half-life: 2.2 h
[3]; [14]
  MRT: 3 h
  Tmax: 2 h
  half-life: 2.3 h
[3]; [15]
  MRT: 2.5 h
  Tmax: 1 h
  half-life: 1.5 h
[3]; [16]
  AUC(0-inf): 1130 ng·h/mL
  MRT: 3.1 h
  Tmax: 2 h
  half-life: 1.7 h
  AUC(0-t): 1120 ng·h/mL
[3]; mouse, portal vein plasma, po, 200 mg/kg, portal vein, oral BBR 200 mg/kg dissolved in water (Control), read-out: Cmax
  Cmax: 321 ng/mL
[3]; [17]
  AUC(0-inf): 2740 ng·h/mL
  MRT: 2.9 h
  Tmax: 2 h
  half-life: 1.3 h
  AUC(0-t): 2730 ng·h/mL
[3]; mouse, portal vein plasma, po, 200 mg/kg, portal vein, oral BBR 200 mg/kg in 1% NADES dilution, read-out: Cmax
  Cmax: 975 ng/mL
[3]; [18]
  AUC(0-inf): 3610 ng·h/mL
  MRT: 2.4 h
  Tmax: 1 h
  half-life: 1.7 h
  AUC(0-t): 3590 ng·h/mL
[3]; mouse, portal vein plasma, po, 200 mg/kg, portal vein, oral BBR 200 mg/kg in 10% NADES dilution, read-out: Cmax
  Cmax: 1470 ng/mL
[3]; [19]
  AUC(0-inf): 2300 ng·h/mL
  MRT: 2.7 h
  Tmax: 2 h
  half-life: 2.7 h
  AUC(0-t): 2230 ng·h/mL
[3]; mouse, portal vein plasma, po, 200 mg/kg, portal vein, oral BBR 200 mg/kg in malic acid solution 98 mg/kg, read-out: Cmax
  Cmax: 972 ng/mL
[3]; [20]
  AUC(0-inf): 3070 ng·h/mL
  MRT: 2.1 h
  Tmax: 1 h
  half-life: 1.4 h
  AUC(0-t): 3060 ng·h/mL
[3]; mouse, portal vein plasma, po, 200 mg/kg, portal vein, oral BBR 200 mg/kg in malic acid solution 980 mg/kg, read-out: Cmax
  Cmax: 1250 ng/mL
[4]
  Papp A→B at 10 μg/ml: 0.41 ± 0.06 ×10⁻⁶ cm/s
  Papp B→A at 10 μg/ml: 13.3 ± 0.4 ×10⁻⁶ cm/s
MDCK-MDR1 cell monolayer; with 0.3% NADES
  P app (AP-BL): 0.88 ± 0.13 ×10^−6 cm/s
  P app (BL-AP): 13.1 ± 1.9 ×10^−6 cm/s
MDCK-MDR1 cell monolayer; with 0.3% NADES, p < 0.05 vs Control
  ERs (efflux rate): 14.9*
MDCK-MDR1 cell monolayer; with 1% NADES
  P app (AP-BL): 20.1 ± 8.7 ×10^−6 cm/s
  P app (BL-AP): 21.7 ± 1.4 ×10^−6 cm/s
MDCK-MDR1 cell monolayer; with 1% NADES, p < 0.01 vs Control
  ERs (efflux rate): 1.1**
MDCK-MDR1 cell monolayer; BBR alone
  P app from AP to BL: lower than 10^−6 cm/s
[5]; 2010
  Fraction of oral BBR directly removed with feces: about 56%
  Fraction of oral BBR eliminated by intestinal efflux transporters and drug metabolizing enzymes: about 43.5%
  Oral bioavailability: 0.36%
[5]; 2016
  Fraction of BBR directly discharged from the body after oral administration: about 56%
  Fraction of oral BBR eliminated during intestinal absorption: 43.5%
